Source: US7504415B2, “Therapeutic agent for glomerular disease” (Kowa Co., Ltd., priority 2001, dated 2009)

Legend:
[1] = tested on: Human mensagial cells; experiment: Mensagial matrix (PIP) production inhibition test, TGF-β1-stimulated, ELISA; type: cell-based; conditions: TGF-β1 10 ng/mL stimulation, 72 hours culture, PIP by ELISA, read-out: PIP production inhibitory activity (IC50)
Description: (1) Culture and Storage of Human Mensagial Cells
Human mensagial cells (normal human mensagial cells, CryoNHMC, product of Sanko Junyaku Co., Ltd.) were cultured in MsGM medium (15 mL/flask) by use of two 75-cm^2 flasks (430720, CORNING). The medium was replaced with fresh medium every 2 to 3 days. Subsequently, the culture was scaled up to a 225-cm^2 flask (3000, COSTER) level, and three vials of passage 5 and 27 vials of passage 6 were prepared at a cell count of 5×10^6 cells/Cell Banker 1 mL/vial (430659, CORNING). The thus-cultured cell samples were stored in a container cooled by liquid nitrogen.
(2) Determination of Mansagial Matrix Production Inhibitory Activity
Cryopreserved human mensagial cells of passage 6 were revived and sown in a medium placed in a 75-cm^2 flask. The medium was replaced the next day, and incubation was continued for three more days. The thus-cultured cells were treated with 0.25% trypsin-0.02% EDTA. […] After completion of culturing, the PIP level of each culture liquid was determined through ELISA by use of a PIP determination kit (product of TAKARA). The percent inhibition (%) was calculated in accordance with the following equation, and the PIP production inhibitory activity (IC50 value) was derived from the percent inhibition. […]

[2] = tested on: progressive anti-Thy-1 nephritic rat; experiment: Pharmacological test using progressive anti-Thy-1 nephritic rats; type: in vivo; conditions: 20 mg/kg perorally once/day, 10 weeks
Description: (1) Wistar female rats (5 weeks old, purchased from Japan SLC Co., Ltd.) were quarantined and acclimatized for four days, and used for the test. First, the right kidney of each rat was removed through flank incision under anesthesia with pentobarbital. Two weeks after removal of the right kidney, an anti-Thy-1 antibody (anti-mesangial-cell antibody/monoclonal antibody 1-22-3; purchased from Panafarm Laboratories Co., Ltd.) was intravenously administered (500 μg/rat) into the tail vein, whereby progressive anti-Thy-1 nephritis was induced. Immediately thereafter, compound A which had been suspended in an aqueous 0.5% sodium carboxymethyl cellulose solution was perorally administered via a peroral probe to each rat in a forced and continuous manner (20 mg/kg body weight, once/day, 10 weeks). After completion of 10 weeks' administration of compound A, urine was taken from each rat for 18 hours in a metabolic cage (Sugiyama Gen Co., Ltd.), and the total amount of protein excreted into the urine was determined.
(2) After completion of the urine analysis, the left kidney was extirpated from each rat, fixed in formalin, and embedded with paraffin. A thin slice obtained from the thus-treated kidney was stained with hematoxylin and eosin (HE), and observed under a stereoscopic microscope. […] The ratio was evaluated on the basis of the following classification. […]

[3] = tested on: Slc: Wistar rats; experiment: Acute toxicity test; type: in vivo, rat
Description: Slc: Wistar rats (5 male rats and 5 female rats, 6 weeks old, purchased from Japan SLC Co., Ltd.) were subjected to fasting overnight. After fasting, compound A which had been suspended in an aqueous 0.5% sodium carboxymethyl cellulose solution was perorally administered in a forced manner to each male rat (500 mg/kg) and each female rat (250 mg/kg).

[4] = tested on: renal failure model (5/6 nephrectomized) rats; experiment: Renal failure model (5/6 nephrectomized) rats; type: in vivo, rat; conditions: 15 mg/kg perorally once a day
Excerpt: Male Wistar rats (10 weeks old, 300 to 350 g, purchased from Japan SLC Co., Ltd.) were anesthetized with pentobarbital, and the right kidney of each rat was extirpated. Subsequently, the left kidney was exposed. Under a stereoscopic microscope, two of the left renal artery branches (generally, one renal artery is separated into three branches) were ligated and one central branch was left intact, to thereby provide a 5/6 nephrectomized rat. When a renal artery branch is ligated, a portion controlled by the branch falls into ischemia, and such ischemic renal portion can be visually detected. The thus-produced renal failure models were evaluated in terms of increase in blood urea nitrogen level (BUN) one day after the ligation.
The rats were divided into three groups such that the BUN level (one day after ligation) of the groups were equalized, and compound A was administered to each rat of the groups. The groups consisted of a normal rat group (N=5); a 5/6 nephphrectomized and drug-untreated group (control: N=8); and a 5/6 nephrectomized and compound-A-administered group (15 mg/kg: N=8). […] The (total protein)/creatinine ratio (UP/Ucr) in a urine sample and the BUN level were determined on days 7, 14, 21, 28, and 35 after ligation.

Substance: monocalcium (+)-bis[(3R, 5S, 6E)-7-[2-cyclopropyl-4-(4-fluorophenyl)-3-quinolyl]-3,5-dihydroxy-6-heptenoate] [compound A]
- IC50 [1]: 22.4 µM
- total amount of protein excreted into urine (18 hours) ([2]; FIG. 1): significantly lowered
- lesions occurring in the malpighian tubes and stroma (tubulointerstitial damage score, HE staining) ([2]; FIG. 2): significantly inhibited
- death during observation period of 14 days ([3]; female rats, 250 mg/kg single peroral dose after overnight fasting): no case of death
- death during observation period of 14 days ([3]; male rats, 500 mg/kg single peroral dose after overnight fasting): no case of death
- blood urea nitrogen (BUN) level ([4]; after week 4, FIG. 4): significant decrease
- (total protein)/creatinine ratio (UP/Ucr) in urine ([4]; weeks 7 and 8 after administration, vs drug-untreated group, FIG. 3): significantly decreases
